Measured values reported in ChEMBL document CHEMBL1151043, “The synthesis and antibacterial activity of 2-para-quarternary ammoniomethylphenyl-carbapenems” (1993).

Tests used:
[1] = biological target: T1, Dipeptidase 1 (Sus scrofa) (UniProt P22412); assay: Susceptibility of compound towards porcine Dehydropeptidase-1 relative to imipenem as […] was calculated
T1 sequence (whole entry): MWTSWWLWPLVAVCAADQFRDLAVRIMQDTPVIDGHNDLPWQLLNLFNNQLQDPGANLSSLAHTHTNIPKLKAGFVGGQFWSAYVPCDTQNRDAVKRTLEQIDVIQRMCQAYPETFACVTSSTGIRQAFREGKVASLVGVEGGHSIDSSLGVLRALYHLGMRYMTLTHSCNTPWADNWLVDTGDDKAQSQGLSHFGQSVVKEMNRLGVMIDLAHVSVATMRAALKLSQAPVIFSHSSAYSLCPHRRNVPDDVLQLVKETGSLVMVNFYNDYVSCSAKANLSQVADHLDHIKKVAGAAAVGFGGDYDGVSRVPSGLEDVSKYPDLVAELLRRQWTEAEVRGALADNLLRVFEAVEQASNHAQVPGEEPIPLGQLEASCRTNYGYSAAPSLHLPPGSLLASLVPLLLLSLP

[2] = test system: Enterococcus; assay: In vitro antibacterial activity against Enterococcus relative to thienamycin; type: functional
[3] = test system: Escherichia coli; assay: In vitro antibacterial activity against Escherichia coli relative to thienamycin; type: functional
[4] = test system: Enterobacter; assay: In vitro antibacterial activity against Enterobacter relative to thienamycin; type: functional
[5] = test system: Klebsiella; assay: In vitro antibacterial activity against Klebsiella relative to thienamycin; type: functional
[6] = test system: Pseudomonas; assay: In vitro antibacterial activity against Pseudomonas relative to thienamycin; type: functional
[7] = test system: Proteus; assay: In vitro antibacterial activity against Proteus relative to thienamycin; type: functional, Proteus sp.
[8] = test system: Serratia; assay: In vitro antibacterial activity against Serratia relative to thienamycin; type: functional
[9] = test system: Staphylococcus aureus; assay: In vitro antibacterial activity against Staphylococcus aureus relative to thienamycin; type: functional

With `C[C@@H](O)[C@H]1C(=O)N2C(C(=O)[O-])=C(c3ccc(C[n+]4cccc(C(F)(F)F)c4)cc3)C[C@H]12` the Susceptibility [1] was 0.04, the Relative potency [2] was 8 and the Relative potency [3] was 3. It also gave a Relative potency [4] of 5.7, a Relative potency [5] of 2.8 and a Relative potency [6] of 0.05. It also gave a Relative potency [7] of 3.7, a Relative potency [8] of 13 and a Relative potency [9] of 1.1.
Compound `C[C@@H](O)[C@H]1C(=O)N2C(C(=O)O)=C(c3ccc(CN4CCCCC4)cc3)C[C@H]12` has a Susceptibility [1] of 0.03, a Relative potency [2] of 6.1 and a Relative potency [3] of 2.5. It also gave a Relative potency [4] of 4, a Relative potency [5] of 1.4 and a Relative potency [6] of 0.05. The Relative potency [7] was 8.6, the Relative potency [8] was 5.7 and the Relative potency [9] was 0.6.
For `C[C@@H](O)[C@H]1C(=O)N2C(C(=O)[O-])=C(c3ccc(C[n+]4ccc(N5CCCC5)cc4)cc3)C[C@H]12`, the Susceptibility [1] was 0.33, the Relative potency [2] was 14.9 and the Relative potency [3] was 3.5. It also gave a Relative potency [4] of 3, a Relative potency [5] of 0.8 and a Relative potency [6] of 0.04. The Relative potency [7] was 7.5, the Relative potency [8] was 7.5 and the Relative potency [9] was 0.6.
Compound `C[C@@H](O)[C@H]1C(=O)N2C(C(=O)[O-])=C(c3ccc(C[n+]4cccc(N)c4)cc3)C[C@H]12` has a Susceptibility [1] of 0.09, a Relative potency [2] of 17.1 and a Relative potency [3] of 7.5. For the same compound, the Relative potency [4] was 11.3, the Relative potency [5] was 4.3 and the Relative potency [6] was 0.1. The Relative potency [7] was 14.9, the Relative potency [8] was 22.6 and the Relative potency [9] was 2.3.
Compound `C[C@@H](O)[C@H]1C(=O)N2C(C(=O)[O-])=C(c3ccc(C[N+]4(C)CCOCC4)cc3)C[C@H]12` has a Susceptibility [1] of 0.02, a Relative potency [2] of 10.6 and a Relative potency [3] of 2. For the same compound, the Relative potency [4] was 5.7, the Relative potency [5] was 2.3 and the Relative potency [6] was 0.02. For the same compound, the Relative potency [7] was 6.1, the Relative potency [8] was 7.5 and the Relative potency [9] was 0.8.
`C[C@@H](O)[C@H]1C(=O)N2C(C(=O)[O-])=C(c3ccc(C[n+]4cccc(C#N)c4)cc3)C[C@H]12` showed a Susceptibility [1] of 0.06, a Relative potency [2] of 10.6 and a Relative potency [3] of 4. The Relative potency [4] was 9.8, the Relative potency [5] was 2.1 and the Relative potency [6] was 0.1. The Relative potency [7] was 4.6, the Relative potency [8] was 11.3 and the Relative potency [9] was 0.9.
In the case of `C[C@@H](O)[C@H]1C(=O)N2C(C(=O)[O-])=C(c3ccc(C[n+]4ccc(N)cc4)cc3)C[C@H]12`, the Susceptibility [1] is reported as 0.14, the Relative potency [2] is reported as 24.3 and the Relative potency [3] is reported as 7. It also gave a Relative potency [4] of 11.3, a Relative potency [5] of 2.3 and a Relative potency [6] of 0.2. It also gave a Relative potency [7] of 16, a Relative potency [8] of 29.9 and a Relative potency [9] of 1.1.
`C[C@@H](O)[C@H]1C(=O)N2C(C(=O)[O-])=C(c3ccc(C[n+]4cccc(C(=O)O)c4)cc3)C[C@H]12` showed a Susceptibility [1] of 0.08.
In the case of `C[C@@H](O)[C@H]1C(=O)N2C(C(=O)[O-])=C(c3ccc(C[N+]4(C)CCCCC4)cc3)C[C@H]12`, the Susceptibility [1] is reported as 0.03, the Relative potency [2] is reported as 14.9 and the Relative potency [3] is reported as 5.3. The Relative potency [4] was 8, the Relative potency [5] was 1.9 and the Relative potency [6] was 0.03. The Relative potency [7] was 9.8, the Relative potency [8] was 11.3 and the Relative potency [9] was 0.8.
Compound `C[C@@H](O)[C@H]1C(=O)N2C(C(=O)[O-])=C(c3ccc(C[n+]4ccccc4)cc3)C[C@H]12` has a Susceptibility [1] of 0.07, a Relative potency [2] of 13 and a Relative potency [3] of 3.5. The Relative potency [4] was 7, the Relative potency [5] was 4.3 and the Relative potency [6] was 0.1. It also gave a Relative potency [7] of 9.8, a Relative potency [8] of 9.8 and a Relative potency [9] of 1.3.
Compound `C[C@@H](O)[C@H]1C(=O)N2C(C(=O)[O-])=C(c3ccc(C[n+]4ccccc4N)cc3)C[C@H]12` has a Susceptibility [1] of 0.11, a Relative potency [2] of 21.1 and a Relative potency [3] of 2.8. It also gave a Relative potency [4] of 6.1, a Relative potency [5] of 2.6 and a Relative potency [6] of 0.08. It also gave a Relative potency [7] of 8, a Relative potency [8] of 11.3 and a Relative potency [9] of 1.3.
`C[C@@H](O)[C@H]1C(=O)N2C(C(=O)[O-])=C(c3ccc(C[n+]4ccc5ccccc5c4)cc3)C[C@H]12` gave a Susceptibility [1] of 0.08, a Relative potency [2] of 24.3 and a Relative potency [3] of 7.5. The Relative potency [4] was 11.3, the Relative potency [5] was 2 and the Relative potency [6] was 0.07. The Relative potency [7] was 17.1, the Relative potency [8] was 36.8 and the Relative potency [9] was 1.3.
Compound `C[C@H](O)[C@H]1C(=O)N2C(C(=O)O)=C(c3ccc(CN)cc3)C[C@H]12` has a Susceptibility [1] of 0.02.
`C[C@@H](O)[C@H]1C(=O)N2C(C(=O)[O-])=C(c3ccc(C[n+]4ccc(N5CCOCC5)cc4)cc3)C[C@H]12` gave a Susceptibility [1] of 0.06, a Relative potency [2] of 4.6 and a Relative potency [3] of 4. For the same compound, the Relative potency [4] was 9.8, the Relative potency [5] was 2.1 and the Relative potency [6] was 0.1. The Relative potency [7] was 4.6, the Relative potency [8] was 11.3 and the Relative potency [9] was 0.5.
In the case of `CC(O)[C@H]1C(=O)N2C(C(=O)O)=C(c3ccc(CN)cc3)C[C@H]12` (some centres undefined), the Relative potency [2] is reported as 9.2, the Relative potency [3] is reported as 3.5 and the Relative potency [4] is reported as 11. The Relative potency [5] was 3.2, the Relative potency [6] was 0.02 and the Relative potency [7] was 6.5. For the same compound, the Relative potency [8] was 5.3 and the Relative potency [9] was 1.5.
`C[C@@H](O)[C@H]1C(=O)N2C(C(=O)O)=C(c3ccc(CN4CCCC4)cc3)C[C@H]12` showed a Susceptibility [1] of 0.04, a Relative potency [2] of 12.1 and a Relative potency [3] of 2.8. The Relative potency [4] was 5.7, the Relative potency [5] was 2.1 and the Relative potency [6] was 0.07. For the same compound, the Relative potency [7] was 8, the Relative potency [8] was 9.8 and the Relative potency [9] was 0.6.
In the case of `C[C@@H](O)[C@H]1C(=O)N2C(C(=O)O)=C(c3ccc(CN4CCN(C)CC4)cc3)C[C@H]12`, the Susceptibility [1] is reported as 0.12, the Relative potency [2] is reported as 5.7 and the Relative potency [3] is reported as 3. For the same compound, the Relative potency [4] was 4.9, the Relative potency [5] was 1 and the Relative potency [6] was 0.04. It also gave a Relative potency [7] of 9.2, a Relative potency [8] of 7 and a Relative potency [9] of 0.4.
In the case of `C[C@@H](O)[C@H]1C(=O)N2C(C(=O)[O-])=C(c3ccc(C[n+]4ccc5ccccc5c4N)cc3)C[C@H]12`, the Susceptibility [1] is reported as 0.14, the Relative potency [2] is reported as 9.2 and the Relative potency [3] is reported as 2.7. For the same compound, the Relative potency [4] was 2.3, the Relative potency [5] was 0.7 and the Relative potency [6] was 0.05. It also gave a Relative potency [7] of 3.7, a Relative potency [8] of 3.7 and a Relative potency [9] of 1.3.
In the case of `C[C@@H](O)[C@H]1C(=O)N2C(C(=O)[O-])=C(c3ccc(C[N+]4(C)CCCC4)cc3)C[C@H]12`, the Susceptibility [1] is reported as 0.03, the Relative potency [2] is reported as 13.9 and the Relative potency [3] is reported as 3.2. For the same compound, the Relative potency [4] was 7.5, the Relative potency [5] was 2.6 and the Relative potency [6] was 0.03. It also gave a Relative potency [7] of 8.6, a Relative potency [8] of 26 and a Relative potency [9] of 0.9.
